Assay results taken from patent EP0396827A1, “2-Phenylthiobenzylamine dervivatives and acid addition salts thereof” (SPOFA Spojené Podniky Pro Zdravotnickou Vyrobu, priority 1989, dated 1990).
Where a name gives a salt, the structure may show the parent alone.

Legend:
[1] = potentiation of yohimbine toxicity in mice; assay type: in vivo; settings: Mus musculus, po, calculated as base, read-out: Yohimbine, ED₅₀
Protocol: (§1) Also, standard pharmacological tests of antireserpine activity (on experimental hypothermia, eyelid ptosis and gastric ulceration) and potentiation of yohimbine toxicity in mice are indicative of pronounced antidepressant properties of compound IA.
(§2) The substances under study were tested in the form of salts administered p.o. The results are conventionally expressed as medium inhibition concentrations IC₅₀ (nM) and effective doses ED (eliciting a first statistically significant response) or medium effective doses ED₅₀ (mg per kg); the concentrations and effective doses are calculated as the corresponding amounts of the base.
(§3) Acute toxicity was tested in mice p.o. and medium lethal dose LD₅₀ is given. Thus, compound IA hydrogen maleate LD₅₀ 232 mg/kg. […] Reserpine hypothermia ED 10, ptosis 25, ulceration 50 mg/kg. Yohimbine, ED₅₀ 54.7 mg/kg.

[2] = test system: 5-HT re-uptake; experiment: ³H-5-HT re-uptake inhibition in rat brain cortex; assay type: biochemical; settings: ³H-5-HT 10 nM, calculated as base, read-out: 5-HT re-uptake IC₅₀
Protocol: (§4) The reported selective action of compound IA was verified by direct comparison of ³H-5-HT (10 nM) and ³H-noradrenaline (NA, 10 nM) re-uptake in rat brain cortex; again the two sets of values were markedly differentiated in the sense of predominant 5-HT re-uptake inhibition.
as §2, §3

[3] = target: T1, IP receptors (Rattus norvegicus, UniProt P31652); experiment: inhibition of tritium-labelled imipramine binding in rat hypothalamus
T1 construct: standard biochemical tests on rat hypothalamus; from tissue; host or cells: rat hypothalamus
T1 sequence (P31652 whole entry): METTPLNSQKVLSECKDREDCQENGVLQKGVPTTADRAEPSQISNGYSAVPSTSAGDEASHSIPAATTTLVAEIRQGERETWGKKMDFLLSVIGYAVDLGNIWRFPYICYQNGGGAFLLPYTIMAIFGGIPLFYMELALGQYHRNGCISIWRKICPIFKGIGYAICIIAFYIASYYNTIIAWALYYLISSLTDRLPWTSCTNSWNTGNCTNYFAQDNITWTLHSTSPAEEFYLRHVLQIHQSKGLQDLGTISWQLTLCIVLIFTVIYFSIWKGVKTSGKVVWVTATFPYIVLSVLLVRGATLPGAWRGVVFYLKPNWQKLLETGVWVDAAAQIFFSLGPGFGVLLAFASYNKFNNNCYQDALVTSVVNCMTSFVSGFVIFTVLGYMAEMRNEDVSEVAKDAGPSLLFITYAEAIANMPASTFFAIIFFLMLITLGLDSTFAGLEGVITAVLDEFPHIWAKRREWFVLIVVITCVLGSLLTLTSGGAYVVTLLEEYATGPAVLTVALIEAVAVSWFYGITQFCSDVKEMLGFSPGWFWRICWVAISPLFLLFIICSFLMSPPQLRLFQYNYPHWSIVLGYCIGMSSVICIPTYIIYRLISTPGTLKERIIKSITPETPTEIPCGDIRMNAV
Protocol: (§5) The above compound was selected as a preferred structure from numerous related new substances on the basis of pharmacological evaluation.
as §2, §3

[4] = acute toxicity in mice p.o.; settings: mouse, in vivo, po, read-out: LD₅₀
Protocol: as §3

[5] = target: T2, DP receptors (Rattus norvegicus, UniProt Q63380); experiment: inhibition of tritium-labelled desipramine binding in rat hypothalamus
T2 construct: standard biochemical tests on rat hypothalamus; from tissue; host or cells: rat hypothalamus
T2 sequence (Q63380 1-617): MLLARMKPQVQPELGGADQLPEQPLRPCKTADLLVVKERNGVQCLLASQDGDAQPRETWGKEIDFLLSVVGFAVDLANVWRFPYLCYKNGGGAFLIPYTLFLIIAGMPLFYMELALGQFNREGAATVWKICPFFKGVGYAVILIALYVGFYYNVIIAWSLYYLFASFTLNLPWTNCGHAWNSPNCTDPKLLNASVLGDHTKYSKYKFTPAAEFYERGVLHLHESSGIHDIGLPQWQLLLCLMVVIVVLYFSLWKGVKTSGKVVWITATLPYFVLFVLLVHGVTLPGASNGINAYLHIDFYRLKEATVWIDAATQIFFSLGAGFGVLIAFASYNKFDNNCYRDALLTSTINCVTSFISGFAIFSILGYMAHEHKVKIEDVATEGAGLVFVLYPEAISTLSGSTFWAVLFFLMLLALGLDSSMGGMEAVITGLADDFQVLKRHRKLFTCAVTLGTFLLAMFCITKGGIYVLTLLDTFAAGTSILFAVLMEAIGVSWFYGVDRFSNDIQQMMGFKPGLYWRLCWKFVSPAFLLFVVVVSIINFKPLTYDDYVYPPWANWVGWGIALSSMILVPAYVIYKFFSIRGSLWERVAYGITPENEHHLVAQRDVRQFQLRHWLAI
Protocol: as §5, §2, §3

[6] = antireserpine activity: reserpine gastric ulceration; assay type: in vivo; settings: p.o.; ED eliciting a first statistically significant response; calculated as base
Protocol: as §1, §2, §3

[7] = antireserpine activity: reserpine hypothermia; assay type: in vivo; settings: p.o.; ED eliciting a first statistically significant response; calculated as base
Protocol: as §1, §2, §3

[8] = antireserpine activity: reserpine eyelid ptosis; assay type: in vivo; settings: p.o.; ED eliciting a first statistically significant response; calculated as base
Protocol: as §1, §2, §3

[9] = test system: NA re-uptake; experiment: ³H-noradrenaline re-uptake inhibition in rat brain cortex; assay type: biochemical; settings: ³H-noradrenaline 10 nM, calculated as base, read-out: NA re-uptake IC₅₀
Protocol: as §4, §2, §3

## CN(C)Cc1ccccc1Sc1cccc(O)c1 [compound IA hydrogen maleate, N,N-Dimethyl-2-(3-hydroxyphenylthio)benzylamine]
[1]
  ED50: 54.7 mg/kg
[2]
  IC50: 0.00058 µM
[3]
  IC50: 0.00424 µM
[4]
  LD50: 232 mg/kg
[5]
  IC50: 12.9 µM
[6]
  Reserpine ulceration ED: 50 mg/kg
[7]
  Reserpine hypothermia ED: 10 mg/kg
[8]
  Reserpine ptosis ED: 25 mg/kg
[9]
  IC50: 506 µM
